Laboratory results from patent US20100298348A1, “Method of Decreasing Ubiquitylated Protein Levels” (priority 2009, published 2010).
Read-outs that look alike come from different tables or passages of the source.

Legend:
Aβ1-40 = assay: Aβ in cynomolgus monkey brain after six-month chronic toxicity study; type: in vivo; conditions: juvenile cynomolgus monkeys, 10 mg/kg/day by naso-gastric tube, 6 months
Protocol: Brain samples from cynomolgus monkeys were obtained at the conclusion of a six-month chronic toxicity study. The cynomolgus monkeys used in this study were juveniles of less than 4 years of age. ST101 was administered daily for 6 months by naso-gastric tube at 10 mg/kg/day (n=8 per group). Data was generated from 8 treated and 8 control animals. Levels of Aβ1-40 are shown in FIG. 9, which is a bar graph that depicts the effect of ST 101 on Aβ in brain tissue from cynomolgus monkeys. FIG. 9 depicts the amount of levels of Aβ1-40 in monkeys treated with ST 101, relative to control monkeys.

tau [1] = assay: Western blot of tau species in 3xTg-AD mouse brain; type: in vivo; conditions: 3xTg-AD mice ~12 months old, 5 mg/kg/day, 2 months, overexposed blot
Description: The status of tau phosphorylation, accumulation and degradation can be assessed in Western blots. Two anti-tau antibodies, directed against non-phosphorylated and phosphorylated tau, were used to probe brain extracts from the initial experiment. FIG. 12 is a series of Western blots depicting levels of full-length tau, tau accumulates, tau degradation products and phosphorylated tau levels in brain extracts from ST101 treated 3×TG-AD mice (S) versus control mice (C). Beta actin levels (Ac) were used as a loading control. P-tau, two panels per antibody: top—normal exposure; bottom—overexposure to visualize minor protein bands. Ac: beta actin antibody as protein loading control. Animals were approximately 12 months old at sacrifice after 2 months of treatment with ST101 at 5 mg/kg/day.

tau [2] = assay: Tau immunohistochemistry with H7 antibody in 3xTg-AD mice; type: in vivo, mouse
Description: The 3xTg-AD mouse model incorporates both pathological hallmarks of Alzheimer's disease: Aβ amyloid plaques and neurofibrillary tangles. Neurofibrillary tangles consist of accumulates of abnormally phosphorylated tau protein. In the 3xTg-AD mice pathological somato-dendritic accumulation of tau can be seen in immunohistochemistry as part of the disease model phenotype.
ST101 effects on tau distribution and accumulation were explored in immunohistochemistry with H7 anti-tau antibody.

[3] = Chronic and reproductive toxicity studies; type: in vivo
[4] = system: rodent models of learning and memory; conditions: cited from earlier work
[5] = system: LC3, Beclin 1, LAMP2A, cathepsin D; assay: Western blots of autophagy and lysosomal degradation mediators in 3xTg-AD mouse brain; type: in vivo; conditions: 3xTg-AD mice 12 months old, 5 mg/kg/day, 2 months
Protocol: The concentrations of several proteins involved in these pathways, specifically LC3, Beclin 1 (macroautophagy), LAMP2A (chaperone mediated autophagy), and cathepsin D (lysosomal protease) were measured in Western blots from 3xTg-AD mouse brains (FIG. 18, extracts from the same animals used in Examples 15-17.

beta-tubulin = assay: Western blot of beta-tubulin in cynomolgus monkey hippocampus; type: in vivo; conditions: cynomolgus monkeys of Example 19, hippocampal brain samples
Description: The effects on tubulin were confirmed in the group of cynomolgus monkeys described in example 19.

Presenilin 1 = assay: Western blot of Presenilin 1 in 3xTg-AD mouse brain; type: in vivo; conditions: 3xTg-AD mice ~12 months old, 5 mg/kg/day, 2 months
Protocol: Western blots were probed with antibodies against BACE1 and ADAM10. FIG. 11A is a series of Western blots depicting levels of proADAM10, ADAM10, proBACE, BACE, Presenilinl and APP-CFTs in brain extracts from ST101 treated 3×TG-AD mice (S) versus control mice (C). C: control brain extract. S: ST101-treated brain extract. Animals were approximately 12 months old at sacrifice after 2 months of treatment with ST101 at 5 mg/kg/day.

SAM-P8 mice = conditions: vs control mice, cited from earlier work
[6] = system: acetylcholine (ACh) and dopamine; assay: Acetylcholine and dopamine release and extracellular concentrations
α-tubulin = assay: Western blot of α-tubulin and acetylated α-tubulin in 3xTg-AD mouse brain; type: in vivo; conditions: 3xTg-AD mice 12 months old, 5 mg/kg/day, 2 months
Description: The overexposed band near the bottom of the figure represents α-tubulin. Above this band a ladder of immuno-reactive bands was detected by the antibody.

Neuro2a cells = assay: Aβ production by Neuro2a cells, ELISA of culture medium; type: cell-based, murine; conditions: 24 hours treatment, vs control
Protocol: Neuro2a is a murine neuroblastoma cell line that is known to produce amyloid peptides Aβ1-40 and Aβ1-42 in amounts measurable by ELISA assays. These forms of Aβ have been correlated with the pathology in AD brain and Aβ1-42 in particular is postulated to have the ability to block a7 nicotinic receptors and to produce direct neurotoxic effects. Neuro2a cells were treated for 24 hours with ST101 added to the tissue culture medium. Tissue culture medium was collected and analyzed by ELISA for the presence of Aβ.

ubiquitylated proteins = assay: Anti-ubiquitin Western blot of 3xTg-AD mouse brain; type: in vivo
Protocol: Brain extracts from 12-month-old 3xTg-AD mice that had been treated with ST101 (S) at 5/mg/kg/day in drinking water over 2 months were analyzed in Western blots using an anti-ubiquitin antibody (Dako no. Z0448). […] The control (C) samples show a typical high molecular weight “smear” representing a mixture of ubiquitylated proteins.

huntingtin = assay: Western blot of pS13 huntingtin in 3xTg-AD mouse brain; type: in vivo; conditions: 3xTg-AD mice 12 months old, 5 mg/kg/day, 2 months; in the majority of cases
Protocol: In a first pilot experiment to explore the effect of ST101 on proteins that accumulate in neurodegenerative diseases other than AD, brain extracts from ST101-treated 3xTg-AD mice (S) and control mice (C) mice were analyzed by Western blotting with an antibody directed against huntingtin, specifically against a phospho-epitope around serine 13 (pS13 huntingtin). These extracts are from the same mice as those used in Examples 15 and 16.

Compound: O=C1N=C2C=CC=CN2C12Cc1ccccc1C2 [ST101, spiro(imidazo[1,2-a]pyridin-2(3H)-one-3,2′-indan)]
- Aβ1-40 levels in brain (Aβ1-40): reduction of Aβ1-40 in animals treated with ST101 that did not reach statistical significance
- accumulated tau and degradation products (tau [1]; H7 antibody): disappearance
- phosphorylated tau degradation product (tau [1]; R-p-tau antibody): appearance of a new phosphorylated tau degradation product
- neuronal loss, Hematoxylin/Eosin stained control sections (tau [2]): no neuronal loss
- pathological somato-dendritic tau staining (tau [2]; hippocampus, H7 anti-tau antibody): clear reduction
- toxicity in chronic toxicity studies ([3]; high doses): very little toxicity
- toxicity in reproductive toxicity studies ([3]; monkey, in vivo): very little toxicity
- safety in rodent and monkey toxicity studies ([3]; up to 6 months, doses up to approximately 100-fold higher than in 3xTg-AD mice): proven safe
- memory deficits induced by chemical amnesic agents ([4]; methamphetamine, MK-801, scopolamine): attenuates
- age-impaired memory ([4]; rodent models): significantly improves
- Beclin 1 concentration [5]: did not reveal any obvious differences
- LAMP2A concentration [5]: did not reveal any obvious differences
- LC3 concentration [5]: did not reveal any obvious differences
- cathepsin D concentration [5]: did not reveal any obvious differences
- beta-tubulin degradation products (beta-tubulin): increase
- Presenilin 1 level (Presenilin 1): did not show significant changes
- senescence scores (SAM-P8 mice; 16 weeks of treatment): significant improvement
- senescence scores (SAM-P8 mice; 32 weeks of treatment): significant improvement
- nicotine-stimulated release of acetylcholine (ACh) [6]: potentiates
- extracellular ACh concentrations ([6]; cerebral cortex): increases
- extracellular concentration of ACh ([6]; hippocampus): increases
- extracellular concentration of dopamine ([6]; hippocampus): increases
- tubulin degradation products (α-tubulin; acetylated α-tubulin antibody): reduced
- high molecular weight ladder of α-tubulin immuno-reactive bands (presumably ubiquitylated tubulin) (α-tubulin; α-tubulin antibody): either absent or significantly reduced
- Aβ1-40 concentration in cell culture medium (Neuro2a cells): without major effects
- Aβ1-42 concentration in cell culture medium (Neuro2a cells): significantly reduced
- ubiquitylated proteins (ubiquitylated proteins; 3xTg-AD mice 12 months old, 5 mg/kg/day in drinking water, 2 months): profound reduction
- monomeric ubiquitin concentrations (ubiquitylated proteins; 3xTg-AD mice 12 months old, 5 mg/kg/day, 2 months, data not shown): largely unaffected
- ubiquitylated proteins (ubiquitylated proteins; 3xTg-AD mice 14.5 months old, 5 mg/kg/day, ~2.5 months): significant reduction
- huntingtin protein levels (pS13 huntingtin) (huntingtin): significantly reduced
